Laboratory results from patent US11124571B2, “Methods of sensitizing cancer to immunotherapy” (CASE WESTERN RESERVE UNIVERSITY, priority 2016, dated 2021).

Key:
[1] = test system: PD-L1, MHC-II and MHC-I surface expression on harvested MM1 tumor cells; assay: IFNγ response of tumor cells harvested on Day 21 from treated mice and cultured in vitro; type: cell-based, mouse; conditions: tumors from in vivo treated mice; cultured 7-10 days without compound; IFNγ 100 ng/ml 24 hours
Description: i) Tumor mass was resected on Day 21 and grown in culture for 1 week, followed by 24-hour exposure to IFNγ to assess PD-L1 response in vitro.

[2] = test system: surface PD-L1 on RMS 76.9 (Rhabdomyosarcoma) cells; assay: Surface PD-L1 expression on RMS 76.9 cells upon IFNγ exposure in the presence of compound; type: cell-based, mouse; conditions: 24-hour exposure, IFNγ 100 ng/ml
Description: (§1) a) Seed wild type MM1 (Medulloblastoma) and RMS 76.9 (Rhabdomyosarcoma) tumor cells (100,000 per well in 6-well plate and 3 ml media). Use PD-L1-deficient tumor cells (crPDL1; genetically manipulated using CRISPR-Cas9 technology) as controls:
(§2) b) Serum starve overnight
(§3) c) Add various concentration of CYC065 in DMSO, along with 100 ng/ml IFNγ
(§4) d) 24 hours later, harvest cells, stain for PD-L1 using anti-mPDL1-PE antibody and analyze by flow cytometry

[3] = test system: surface PD-L1 on MM1 (Medulloblastoma) cells; assay: Surface PD-L1 expression on MM1 cells upon IFNγ exposure in the presence of compound; type: cell-based, mouse
Description: as §1, §2, §3, §4

MM1 tumors = assay: In vivo anti-tumor efficacy against subcutaneous MM1 tumors
Description: e) 10 8-12 week-old […] male mice per cohort were used for all in vivo tumor growth kinetics experiment.
f) 50,000 tumor cells were inoculated subcutaneously in the flank on Day 0
h) Mice were monitored at least twice a week for tumor growth and tumor size measurements.

[4] = test system: PD-L1 transcript in MM1 WT cells; assay: PD-L1 mRNA expression (qPCR) in MM1 WT cells treated with Roscovitine and stimulated with IFNγ; type: cell-based, mouse; conditions: Roscovitine 10 μM or 20 μM, 4 days, IFNγ 100 ng/ml 24 hours
Description: Total cellular RNA was isolated from 5×10^6-107 cells using TRIZOL and RNAspin Mini kit (GE Healthcare, UK), treated with DNAseI to eliminate genomic DNA, and quantitated using the NanoDrop2000 spectrophotometer. Reverse transcription (RT) of 1 μg of total RNA was performed with oligo(dT)16 using on using SuperScript First Strand Synthesis System for RT-PCR kit (Life Technologies, Carlsbad, Calif.). The resulting cDNA was used as a template for the amplification of target gene transcripts by real time PCR, using SYBR Green PCR Master Mix (Life Technologies, Carlsbad, Calif.) on the ABI 7300 Real-Time PCR machine (Life Technologies, Carlsbad, Calif.). Target gene expression was calculated using the standard curve method upon normalization to cytochrome c housekeeping gene. The primer sequences were as follows: Cdk5 forward: […]; Cdk5 reverse: […]; cytochrome c forward: […]; cytochrome c reverse: […]; p35 forward: […]; p35 reverse: […]; PD-L1 forward: […] and PD-L1 reverse: […].
Murine MB cell lines MM1 were grown in RPMI supplemented with 10% FBS. A stock solution of Roscovitine (10 mM) or vehicle control-DMSO was diluted in fresh tumor medium and added to samples to achieve a final concentration of 10 μM or 20 μM. After 4 days of treatment, cells were subjected to 100 ng/ml rmIFN-γ (R&D Systems) for 24 hours and then harvested for qPCR analysis.

[5] = test system: surface PD-L1 on DAOY and UW228 human MB lines; assay: Surface PD-L1 (flow cytometry) on human MB lines treated with Roscovitine and stimulated with IFNγ; type: cell-based; conditions: IFNγ 24 hours
[6] = test system: surface PD-L1 on MM1 (Medulloblastoma) cells; conditions: same cell lines (MM1, RMS); reported in Dorand et al. Science 2016; cited from earlier work
[7] = MM1, 24-hour exposure, IFNγ 100 ng/ml

Row | SMILES | MHC-II/MHC-I response upon in vitro exposure to IFNγ [1] | PD-L1 response upon in vitro exposure to IFNγ [1] | concentration at which PD-L1 response upon IFNγ stimulation is completely abrogated [2] | concentration at which PD-L1 response upon IFNγ stimulation is completely abrogated [3, 7] | concentration at which cells began to show PD-L1 down-modulation [3, 7] | increase in potency for PD-L1 down modulation as compared to Roscovitin ([3]; MM1 and RMS cell lines) | mortality (MM1 tumors; 50 mg/kg daily×5 days/week by gavage in water, prolonged exposure, MM1-bearing C57BL/6 mice) | tumor size (MM1 tumors; 50 mg/kg daily×5 days/week by gavage, start Day 0 or Day 7) | PD-L1 transcript [4] | surface PD-L1 upregulation upon IFNγ exposure [5] | concentration at which effects on PD-L1 down modulation are shown [6]
1 | CC[C@H](Nc1nc(NCc2cnc(C)cc2C)c2ncn(C(C)C)c2n1)[C@@H](C)O [CYC065] | enhanced MHC-II/MHC-I enhancement | reduced PD-L1 response | 1 µM | 1 µM | 0.5 µM | > 10 fold | 70% | significantly smaller sized tumor | – | – | –
2 | CC[C@H](CO)Nc1nc(NCc2ccccc2)c2ncn(C(C)C)c2n1 [Roscovitine, 6-benzylamino-2-[(R)-1-ethyl-2-hydroxyethylamino]-9-isopropylpurine] | – | – | – | – | – | – | – | – | dose-dependent decrease | diminished surface PD-L1 upregulation | ≥ 10 µM
